# Experimental data published in patent publication US8613927B2, “High affinity human antibodies to human nerve growth factor” (Regeneron Pharmaceuticals, Inc., priority 2007, dated 2013).
# Tests used:
# C57BL/6 male mice = assay: Seltzer model of neuropathic pain, Hargreaves' test; assay type: in vivo, mouse
# Text: Neuropathic pain. The mouse Seltzer model of neuropathic pain (Malmberg et al. (1998) Pain 76:215-222) was used with C57BL/6 male mice, in which a partial nerve injury was produced by tying a tight ligature with a 7-0 silk suture around approximately ⅓ to ½ the diameter of the sciatic nerve of one single thigh per mouse. Post-surgery, the mice were allowed to recover for at least two days and then they were studied for several weeks post-surgery for thermal hyperalgesia in the Hargreaves' test. Controls were sham-operated mice in which the sciatic nerve was exposed and elevated but not tied. Following surgery, the mice were tested at day […] and at day 7 post-surgery to confirm that the thermal hyperalgesia had developed.
# Following the Seltzer surgery, mice were tested at days 5 and 7 post-surgery to confirm that the thermal hyperalgesia had developed.
# [1] = target: T1, human NT-3 binding to human TrkB-hFc (Homo sapiens, UniProt P20783); assay: BIACORE, NT-3 binding to TrkB-hFc surface in presence of antibody; conditions: 20 nM NT-3 + 500 nM sample; normalized to IgG1 control
# T1 sequence (P20783 139-257): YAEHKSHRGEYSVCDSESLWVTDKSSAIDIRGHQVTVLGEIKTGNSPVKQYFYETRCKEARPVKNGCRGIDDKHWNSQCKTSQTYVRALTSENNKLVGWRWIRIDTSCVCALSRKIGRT
# Experimental: (§1) Human TrkA-hFc (9300 RU), human TrkB-hFc (6000 RU), human TrkC-hFc (9100 RU) and human p75-hFc (7500 RU) were covalently coupled to BIACORE® CM5 chip surfaces by amine-coupling procedure. […] The binding mixture was first incubated at room temperature to reach equilibrium (about 1 hr) and then was injected over the above TrkA-hFc, TrkB-hFc, TrkC-hFc and p75-hFc surfaces. The level of human NT-3 binding in each sample was measured. The binding RU from each sample mixture was normalized according to the RU value from the negative control sample (i.e., 20 nM human NT-3 with 500 nM AVASTIN®) and presented as % binding to Trk surfaces (Table 9).
# [2] = target: T2, human NT-3 binding to human p75-hFc (Homo sapiens, UniProt P20783); assay: BIACORE, NT-3 binding to p75-hFc surface in presence of antibody; conditions: 20 nM NT-3 + 500 nM sample; normalized to IgG1 control
# T2 sequence (P20783 139-257): T1 sequence (P20783 139-257)
# Experimental: as §1
# C57BL/6 mice = assay: Post-operative incision pain model, mechanical allodynia in von Frey test; assay type: in vivo, mouse; conditions: Table 17
# Experimental: Thermal hyperalgesia was studied in the Hargreaves' test and mechanical allodynia was tested in the von Frey test. In this latter test, mice were tested after being acclimated for 2-3 hours for 4 days in an apparatus with a wire mesh floor. The test was performed by applying, in ascending order, a series of von Frey hairs through the wire mesh onto the plantar surface of the hind paw with the incision. A response was considered positive if the paw was raised from the platform in response to application of the filament. Starting from the thinnest hair, each von Frey filament was applied up to five times until a response was observed.
substance,measurement,setting,value
"IgG1 Control: negative binding control, IgG1 control (AVASTIN®; Genentech, CA)",mean percent change from Hargreaves baseline,"C57BL/6 male mice; Table 24, injected Day 14, Day 14",−62.1 ± 5.7%
same,mean percent change from Hargreaves baseline,"C57BL/6 male mice; Table 24, injected Day 14, Day 15",−63.0 ± 5.8%
same,mean percent change from Hargreaves baseline,"C57BL/6 male mice; Table 24, injected Day 14, Day 17",−58.6 ± 5.7%
same,mean percent change from Hargreaves baseline,"C57BL/6 male mice; Table 24, injected Day 14, Day 21",−57.1 ± 4.4%
same,mean percent change from Hargreaves baseline,"C57BL/6 male mice; Table 24, injected Day 14, Day 24",−49.5 ± 6.6%
same,mean percent change from Hargreaves baseline,"C57BL/6 male mice; Table 24, injected Day 14, Day 28",−53.6 ± 5.4%
same,mean percent change from Hargreaves baseline,"C57BL/6 male mice; Table 24, injected Day 14, Day 32",−40.9 ± 13.1%
same,mean percent change from Hargreaves baseline,"C57BL/6 male mice; Table 24, injected Day 14, Day 35",−42.9 ± 10.3%
same,mean percent change from Hargreaves baseline,"C57BL/6 male mice; Table 24, injected Day 14, Day 39",−39.0 ± 11.4%
same,mean percent change from Hargreaves baseline,"C57BL/6 male mice; Table 24, injected Day 14, Day 42",−38.1 ± 12.5%
same,mean percent change from Hargreaves baseline,"C57BL/6 male mice; Table 24, injected Day 21, Day 5 after surgery",−55.5 ± 5.0%
same,mean percent change from Hargreaves baseline,"C57BL/6 male mice; Table 24, injected Day 21, Day 7",−47.2 ± 4.8%
same,mean percent change from Hargreaves baseline,"C57BL/6 male mice; Table 24, injected Day 21, Day 8",−47.9 ± 4.7%
same,mean percent change from Hargreaves baseline,"C57BL/6 male mice; Table 24, injected Day 21, Day 10",−55.0 ± 6.7%
same,mean percent change from Hargreaves baseline,"C57BL/6 male mice; Table 24, injected Day 21, Day 14",−63.8 ± 4.6%
same,mean percent change from Hargreaves baseline,"C57BL/6 male mice; Table 24, injected Day 21, Day 15",−54.5 ± 5.0%
same,mean percent change from Hargreaves baseline,"C57BL/6 male mice; Table 24, injected Day 21, Day 17",−52.4 ± 5.3%
same,mean percent change from Hargreaves baseline,"C57BL/6 male mice; Table 24, injected Day 21, Day 21",−55.8 ± 3.6%
same,mean percent change from Hargreaves baseline,"C57BL/6 male mice; Table 24, injected Day 21, Day 22",−50.6 ± 5.3%
same,mean percent change from Hargreaves baseline,"C57BL/6 male mice; Table 24, injected Day 21, Day 24",−44.7 ± 5.7%
same,mean percent change from Hargreaves baseline,"C57BL/6 male mice; Table 24, injected Day 21, Day 28",−46.0 ± 7.6%
same,mean percent change from Hargreaves baseline,"C57BL/6 male mice; Table 24, injected Day 21, Day 32",−32.8 ± 4.8%
same,mean percent change from Hargreaves baseline,"C57BL/6 male mice; Table 24, injected Day 21, Day 35",−39.8 ± 4.5%
same,mean percent change from Hargreaves baseline,"C57BL/6 male mice; Table 24, injected Day 21, Day 39",−34.6 ± 10.0%
same,mean percent change from Hargreaves baseline,"C57BL/6 male mice; Table 24, injected Day 21, Day 42",−33.9 ± 9.9%
same,mean percent change from Hargreaves baseline,"C57BL/6 male mice; Table 25, 50 mg/kg s.c. at day 7, day 5 after surgery",−51.2 ± 5.2%
same,mean percent change from Hargreaves baseline,"C57BL/6 male mice; Table 25, 50 mg/kg s.c. at day 7, day 7",−47.6 ± 3.9%
same,mean percent change from Hargreaves baseline,"C57BL/6 male mice; Table 25, 50 mg/kg s.c. at day 7, day 9",−36.7 ± 14.6%
same,mean percent change from Hargreaves baseline,"C57BL/6 male mice; Table 25, 50 mg/kg s.c. at day 7, day 12",−47.2 ± 5.5%
same,mean percent change from Hargreaves baseline,"C57BL/6 male mice; Table 25, 50 mg/kg s.c. at day 7, day 15",−46.7 ± 8.5%
same,mean percent change from Hargreaves baseline,"C57BL/6 male mice; Table 25, 50 mg/kg s.c. at day 7, day 19",−28.6 ± 7.5%
same,mean percent change from Hargreaves baseline,"C57BL/6 male mice; Table 25, 50 mg/kg s.c. at day 7, day 22",−34.9 ± 7.9%
same,mean percent change from Hargreaves baseline,"C57BL/6 male mice; Table 25, 50 mg/kg s.c. at day 7 post-surgery, Baseline",0.0 ± 0.0%
same,mean percent change from Hargreaves baseline,"C57BL/6 male mice; Table 26, 50 mg/kg i.p. at day 7, day 5 after surgery",−55.5 ± 3.8%
same,mean percent change from Hargreaves baseline,"C57BL/6 male mice; Table 26, 50 mg/kg i.p. at day 7, day 7",−61.6 ± 1.8%
same,mean percent change from Hargreaves baseline,"C57BL/6 male mice; Table 26, 50 mg/kg i.p. at day 7, day 8",−59.3 ± 4.0%
same,mean percent change from Hargreaves baseline,"C57BL/6 male mice; Table 26, 50 mg/kg i.p. at day 7, day 9",−51.0 ± 4.2%
same,mean percent change from Hargreaves baseline,"C57BL/6 male mice; Table 26, 50 mg/kg i.p. at day 7, day 12",−46.5 ± 6.3%
same,mean percent change from Hargreaves baseline,"C57BL/6 male mice; Table 26, 50 mg/kg i.p. at day 7, day 15",−43.3 ± 6.6%
same,mean percent change from Hargreaves baseline,"C57BL/6 male mice; Table 26, 50 mg/kg i.p. at day 7 post-surgery, Baseline",0.0 ± 0.0%
same,% binding to TrkB-hFc surface,[1],100%
same,% binding to p75-hFc surface,[2],100%
same,Paw Withdrawal Threshold,"C57BL/6 mice; 25 mg/kg i.p. on day 1 post-surgery, Baseline",1.314 ± 0.137 g
same,Paw Withdrawal Threshold,"C57BL/6 mice; 25 mg/kg i.p., 5 hr after treatment",0.011 ± 0.002 g
same,Paw Withdrawal Threshold,"C57BL/6 mice; 25 mg/kg i.p., 22 hr after treatment",0.029 ± 0.004 g
same,Paw Withdrawal Threshold,"C57BL/6 mice; 25 mg/kg i.p., 45 hr after treatment",0.190 ± 0.135 g
same,Paw Withdrawal Threshold,"C57BL/6 mice; 25 mg/kg i.p., 70 hr after treatment",0.194 ± 0.034 g
same,Paw Withdrawal Threshold,"C57BL/6 mice; 25 mg/kg i.p., Day 1 (post-surgery, before injection)",0.011 ± 0.002 g
